Values joined by “and” are separate entries in the source; they are usually repeats but may differ in a detail not shown here. Identical values can stand only once. Like-named read-outs stand apart in the source and are kept apart here. Marks after values point to notes of the source that are not given here.
What was measured:
[1] = target: LCK tyrosine kinase (Homo sapiens, UniProt P06239, C224D/P223M); experiment: LCK spectrophotometric assay; format: biochemical; settings: Table 1, compound concentration 1 µM; for inhibition at 1 µM: read-out: Lck-P* (% inhibition); for Lck-P* (% inhibition): 1 µM
Chain of LCK tyrosine kinase (P06239 223-509 P223M/C224D): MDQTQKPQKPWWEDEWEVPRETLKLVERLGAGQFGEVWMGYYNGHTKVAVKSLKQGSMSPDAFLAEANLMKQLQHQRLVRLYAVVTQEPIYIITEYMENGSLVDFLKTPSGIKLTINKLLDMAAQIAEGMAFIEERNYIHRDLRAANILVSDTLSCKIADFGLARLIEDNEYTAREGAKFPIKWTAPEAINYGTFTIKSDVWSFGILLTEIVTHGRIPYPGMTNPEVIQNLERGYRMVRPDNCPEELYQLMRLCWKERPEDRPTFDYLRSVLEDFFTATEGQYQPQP
Method: The spectrophotometric assay was carried out as described above for VEGF-R2, except for the following changes in concentration: LCK = 60 nM, MgCl2 = 0 mM, poly(E4Y1) = 20 mM.

[2] = target: human FGF-R1 (Homo sapiens, UniProt P11362, C488A/C584S/L457V); experiment: FGF-R spectrophotometric assay; format: biochemical; settings: Table 1, compound concentration 1 µM; for inhibition at 1 µM: read-out: FGF-P* (% inhibition); for FGF-P* (% inhibition): 1 µM
Chain of human FGF-R1 (P11362 456-766 L457V/C488A/C584S): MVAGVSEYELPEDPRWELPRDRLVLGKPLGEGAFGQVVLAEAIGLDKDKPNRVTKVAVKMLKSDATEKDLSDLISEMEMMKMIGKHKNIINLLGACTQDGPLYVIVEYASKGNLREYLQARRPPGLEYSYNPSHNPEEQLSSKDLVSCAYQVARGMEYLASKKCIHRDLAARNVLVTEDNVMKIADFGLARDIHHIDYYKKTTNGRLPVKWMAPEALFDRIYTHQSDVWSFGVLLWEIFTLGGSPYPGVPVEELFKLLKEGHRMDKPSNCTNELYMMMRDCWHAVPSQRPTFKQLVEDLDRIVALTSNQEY
Method: The spectrophotometric assay was carried out as described above for VEGF-R2, except for the following changes in concentration: FGF-R = 50 nM, ATP = 2 mM, and poly(E4Y1) =15 mM.

[3] = test system: human umbilical vein endothelial cells (HUVEC); experiment: HUVEC proliferation assay (VEGF-stimulated, MTT); format: cell-based; settings: Homo sapiens, HUVEC, Table 1
[4] = in vitro; format: in vitro ADME, human; settings: 2 h; for remaining at 2 h, 5 µM: read-out: % remain (HLM, 2 h)
Method: Compound metabolism in human liver microsomes was measured by LC-MS analytical assay procedures as follows. First, human liver microsomes (HLM) were thawed and diluted to 5 mg/mL with cold 100 mM potassium phosphate (KPO4) buffer. Appropriate amounts of KPO4 buffer, NADPH-regenerating solution (containing B-NADP, glucose-6-phosphate, glucose-6-phosphate dehydrogenase, and MgCl2), and HLM were preincubated in 13 x 100 mm glass tubes at 37 C for 10 min. (3 tubes per test compound--triplicate). Test compound (5 µM final) was added to each tube to initiate reaction and was mixed by gentle vortexing, followed by incubation at 37 °C. At t=0, 2 h, a 250-µL sample was removed from each incubation tube to separate 12 x 75 mm glass tubes containing 1 mL ice-cold acetonitrile with 0.05 µM reserpine. […] Supernatant was transferred to new 12 x 75 mm glass tubes and evaporated by Speed-Vac centrifugal vacuum evaporator. Samples were reconstituted in 200 µL 0.1 % formic acid/acetonitrile (90/10) and vortexed vigorously to dissolve. The samples were then transferred to separate polypropylene microcentrifuge tubes and centrifuged at 14000 x g for 10 min. (Fisher Micro 14, S/N M0017580). For each replicate (#1-3) at each timepoint (0 and 2 h), an aliquot sample of each test compound was combined into a single HPLC vial insert (6 total samples) for LC-MS analysis, which is described below.

[5] = target: unphosphorylated VEGF-R2Δ50 (Homo sapiens, UniProt P35968, DEL940-989/E990V); experiment: biochemical; settings: for Ki: FLVK ** (Ki), Table 1; for inhibition at 0.05 µM: read-out: FLVK ** (% inhibition); for inhibition at 1 µM: read-out: FLVK ** (% inhibition, cell marked *)
Chain of unphosphorylated VEGF-R2Δ50 (P35968 with tags, fused parts or gaps DEL940-989/E990V limits assumed): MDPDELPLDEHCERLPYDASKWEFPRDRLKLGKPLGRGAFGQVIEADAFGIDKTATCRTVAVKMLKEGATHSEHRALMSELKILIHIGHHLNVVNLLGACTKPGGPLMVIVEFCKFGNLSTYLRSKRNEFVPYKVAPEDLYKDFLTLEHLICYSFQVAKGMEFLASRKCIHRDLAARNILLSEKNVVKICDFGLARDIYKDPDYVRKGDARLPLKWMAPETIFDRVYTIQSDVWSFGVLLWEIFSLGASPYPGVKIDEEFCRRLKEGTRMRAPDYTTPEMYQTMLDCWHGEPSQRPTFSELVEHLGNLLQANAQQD

[6] = vehicle PEG400:H2O pH 2.3 30:70
[7] = in vivo; settings: mouse, plasma, pH 2.3
[8] = + albumin, read-out: HUVEC + albumin IC50
[9] = human liver microsomes, 5 µM test compound, 37 °C

Compound	inhibition at 1 µM [1] [%]	inhibition at 1 µM [2] [%]	IC50 [3, 8] [nM]	T1/2 ([6]; PO, 25 mg/kg) [h]	AUC ([7]; po, 25 mg/kg) [ng·h/mL]	inhibition at 0.05 µM [5] [%]	% remain (HLM, 2 h) [4, 9]	also measured
O=C(Cc1ccccn1)Nc1cccc(C(=O)c2ccc3c(/C=C/c4ccccc4)n[nH]c3c2)c1 [19(g), 6-[3-(pyridin-2-ylacetamido)benzoyl]-3-E-styryl-1H-indazole]	19	59	1920					IC50 ([3]; read-out: HUVEC IC50): 18 nM; remaining at 2 h, 5 µM [4, 9]: 90%; Ki [5]: 0.86 nM
O=C(NNc1ccccn1)c1ccccc1Sc1ccc2c(/C=C/c3ccccn3)n[nH]c2c1 [35 (n)]				1.4	4820			
CN(O)C(=O)c1ccccc1Sc1ccc2c(/C=C/c3ccccn3)n[nH]c2c1 [35 (o)]				1.0	683			Cmin (7 hr conc.) ([6]; PO, 25 mg/kg): 3 ng/mL
COc1cccc(C(=O)Nc2cccc(C(=O)c3ccc4c(/C=C/c5ccccn5)n[nH]c4c3)c2)c1 [41 (bb)]								T1/2 ([6]; PO, 50 mg/kg): 2.0 h; AUC ([7]; po, 50 mg/kg): 2180 ng·h/mL
CC(=O)Nc1cc(C(=O)c2ccc3c(/C=C/c4ccccn4)n[nH]c3c2)ccc1C [41 (gg)]				1.1	2690			
Cc1cc(C(=O)Nc2cc(C(=O)c3ccc4c(/C=C/c5ccccn5)n[nH]c4c3)ccc2C)n(C)n1 [41 (hh)]					5600			half-life ([7]; po, 25 mg/kg): 7.9 h
Cc1cc(C(=O)Nc2cc(C(=O)c3ccc4c(/C=C/c5ccccn5)n[nH]c4c3)c(C)cc2C)n(C)n1 [41 (mm)]					2260			half-life ([7]; po, 25 mg/kg): 2.5 h
Cn1nc(C(C)(C)C)cc1C(=O)Nc1cccc(C(=O)c2ccc3c(/C=C/c4ccccn4)n[nH]c3c2)c1 [41 (n)]								T1/2 ([6]; IP, 25 mg/kg): 3.2 h; T1/2 ([6]; PO, 50 mg/kg): 1.9 h; AUC ([7]; ip, 25 mg/kg): 9410 ng·h/mL; AUC ([7]; po, 50 mg/kg): 9070 ng·h/mL
Cc1cc(C(=O)Nc2cccc(C(=O)c3ccc4c(/C=C/c5ccccn5)n[nH]c4c3)c2)cc(Cl)n1 [41 (q)]				5.2				AUC ([7]; ip, 25 mg/kg): > 27000 ng·h/mL
C=CCn1nc(C)cc1C(=O)Nc1cccc(C(=O)c2ccc3c(/C=C/c4ccccn4)n[nH]c3c2)c1 [41 (t)]				4.0	> 22500			
COc1cc(C(=O)Nc2cccc(C(=O)c3ccc4c(/C=C/c5ccccn5)n[nH]c4c3)c2)cc(Cl)n1 [41 (u)]				5.6	875			
Cc1cc(C(=O)Nc2cccc(C(=O)c3ccc4c(/C=C/c5ccccn5)n[nH]c4c3)c2)n(C(C)C)n1 [41 (x)]				4.2	24200			
Cc1cc(C(=O)Nc2cc(C(=O)c3ccc4c(/C=C/c5ccccn5)n[nH]c4c3)c(C)cc2C)n(C)n1 [41(min)]	6	46	14.4			93		IC50 ([3]; read-out: HUVEC IC50): 1.3 nM; % remain (HLM, 2 h) ([4]; human, microsomes, 5 µM): 94%
CCn1nc(C)cc1C(=O)Nc1cccc(Oc2ccc3c(/C=C/c4c[nH]cn4)n[nH]c3c2)c1 [Reference Example 32(b), 6-[3-((1-Ethyl-3-methyl-1H-pyrazol-5-yl)carboxamido)phenoxy]-3-E-[2-(1H-imidazol-4-yl)ethenyl]-1H-indazole]	70	95	21	2.1	490			
CCn1nc(C)cc1C(=O)Nc1cccc(Oc2ccc3c(/C=C/c4c[nH]c(C)n4)n[nH]c3c2)c1 [Reference Example 32(c), 6-[3-((1-Ethyl-3-methyl-1H-pyrazol-5-yl)carboxamido)phenoxy]-3-E-[2-(2-methylimidazol-4-yl)ethenyl]-1H-indazole]	52	96	> 30	2.4	388			
Cn1cccc1C(=O)NNC(=O)c1ccccc1Sc1ccc2c(/C=C/c3ccccn3)n[nH]c2c1 [Reference Example 35(e), 6-[2-((1-methylpyrrol-2-ylhydrazido)carbonyl)phenylsulfanyl]-3-E-[2-(pyridin-2-yl)ethenyl)-1H-indazole]	56	69	4.8			99	34%	
O=C(NOCC1CC1)c1ccccc1Sc1ccc2c(/C=C/c3ccccn3)n[nH]c2c1 [Reference Example 35(s), 6-[2-((Cyclopropyl)methoxycarbamoyl)phenylsulfanyl]-3-E-[2-(pyridin-2-yl)ethenyl]-1H-indazole]	18	64	4.6					remaining at 2 h, 5 µM [4, 9]: 16%; inhibition at 1 µM [5]: 60%
CCCONC(=O)c1ccccc1Sc1ccc2c(/C=C/c3ccccn3)n[nH]c2c1 [Reference Example 35(t), 6-[2-(n-Propoxycarbamoyl)phenylsulfanyl]-3-E-[2-(pyridin-2-yl)ethenyl]-1H-indazole]	12	63	4				7%	inhibition at 1 µM [5]: 59%
O=C(Nc1nccs1)c1ccccc1Sc1ccc2c(/C=C/c3ccccn3)n[nH]c2c1 [Reference Example 35(y), 6-[2-(Thiazol-2-ylcarbamoyl)phenylsulfanyl]-3-E-[2-(pyridin-2-yl)ethenyl]-1H-indazole]	29	82	1 to 3			99	7%	
CCONC(=O)c1cccc(F)c1Sc1ccc2c(/C=C/c3ccccn3)n[nH]c2c1 [Reference Example 37(a), 6-[6-Fluoro-2-(ethoxycarbamoyl)phenylsulfanyl}-3-E-[2-(pyridin-2-yl)ethenyl]-1H-indazole]	6	35	15			57	21, ! %	
CC(C)ONC(=O)c1cccc(F)c1Sc1ccc2c(/C=C/c3ccccn3)n[nH]c2c1 [Reference Example 37(c), 6-[6-fluoro-2-(isopropoxycarbamoyl)phenylsulfanyl]-3-E-[2-(pyridin-2-yl)ethenyl]-1H-indazole]	12	39	12			83	21%	
COc1cccc(C(=O)Nc2cccc(C(=O)c3ccc4c(/C=C/c5ccccn5)n[nH]c4c3)c2)c1 [Reference Example 41(bb), 6-[3-(3-methoxybenzamido)benzoyl]-3-E-[2-(pyridin-2-yl)ethenyl]-1H-indazole]	76	88	1 to 3			99	110%	
CC(C)=CC(=O)Nc1cccc(C(=O)c2ccc3c(/C=C/c4ccccn4)n[nH]c3c2)c1 [Reference Example 41(dd), 6-[3-(3,3-dimethylacrylamido)benzoyl]-3-E-[2-(pyridin-2-yl)ethenyl]-1H-indazole]	50	69	5.8			98	7%	
Cc1cc(C(=O)Nc2cccc(C(=O)c3ccc4c(/C=C/c5ccccn5)n[nH]c4c3)c2)nn1C [Reference Example 41(i), 6-[3-((1,5-dimethyl-1H-pyrazol-3-yl)carboxamido)benzoyl]-3-E-[2-(pyridin-2-yl)ethenyl]-1H-indazole]						98		Lck-P* (% inhibition) [1]: 16%; Lck-P* (% inhibition) ([1]; listed as 41(I)): 63%* and 38%*; FGF-P* (% inhibition) [2]: 41%; FGF-P* (% inhibition) ([2]; listed as 41(I)): 66% and 76%; IC50 ([3]; read-out: HUVEC IC50): 0.25 nM; remaining at 2 h, 5 µM [4, 9]: 48%; Ki [5]: 0.24 nM and 0.04 nM
Cc1cc(C(=O)Nc2cc(C(=O)c3ccc4c(/C=C/c5ccccn5)n[nH]c4c3)ccc2C)n(C(C)C)n1 [Reference Example 41(kk), 6-[3-((1-Isopropyl-3-methyl-1H-pyrazol-5-yl)carboxamido)-4-methylbenzoyl]-3-E-[2-(pyridin-2-yl)ethenyl]-1H-indazole]	26	97	16			100	63%	

Source: patent EP1614683B1, “Indazole compounds and pharmaceutical compositions for inhibiting protein kinases, and methods for their use” (priority 1999, dated 2001)
